For one test, the target named is T1, p38a (Homo sapiens, UniProt Q16539).
T1 construct: purchased Reaction Biology Corp
The test can be described thus: HotSpot Kinase Assay, P38a. Type of test: biochemical. As to conditions: HotSpot radiometric assay, 33P-ATP. As for the experimental part: (§1) The anti-JNK3 activity of compounds prepared as in the previous examples was evaluated using a Reaction Biology Corp. HotSpot Kinase Assay. Base reaction buffer was 20 mM HEPES (4-(2-hydroxyethyl)-1-piperazineethanesulfonic acid) at pH 7.5 with 10 mM MgCl2, 1 mM EGTA (ethylene glycol-bis(β-aminoethyl ether)-N,N,N′,N′-tetracetic acid), 0.02% Brij™ 35, 0.02 mg/mL BSA (bovine serum albumin), 0.1 mM Na3VO4, 2 mM DTT (dithiothreitol), and 1% DMSO. Required cofactors were added individually to each kinase reaction.
(§2) Activity against related enzymes JNK1 and P38a was further assessed using the same assay.

Another test deals with T2, JNK1 (Homo sapiens, UniProt P45983).
T2 construct: purchased Reaction Biology Corp
T2 sequence (P45983 whole entry): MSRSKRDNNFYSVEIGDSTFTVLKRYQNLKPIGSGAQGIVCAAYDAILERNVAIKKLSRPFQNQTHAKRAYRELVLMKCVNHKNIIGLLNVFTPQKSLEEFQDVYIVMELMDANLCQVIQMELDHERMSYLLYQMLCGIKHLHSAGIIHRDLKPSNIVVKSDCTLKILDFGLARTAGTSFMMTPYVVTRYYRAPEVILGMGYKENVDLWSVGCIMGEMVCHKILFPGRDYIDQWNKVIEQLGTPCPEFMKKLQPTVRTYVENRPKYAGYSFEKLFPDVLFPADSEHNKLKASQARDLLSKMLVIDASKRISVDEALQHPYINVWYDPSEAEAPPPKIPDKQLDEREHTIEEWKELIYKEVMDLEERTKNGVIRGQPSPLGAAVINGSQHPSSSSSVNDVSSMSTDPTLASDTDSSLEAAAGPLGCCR
Description: HotSpot Kinase Assay, JNK1. The following applies: HotSpot radiometric assay, 33P-ATP. It is filed as biochemical. As to the method:
as §1, §2

For another test, the target named is T3, JNK3 (Homo sapiens, UniProt P53779).
T3 construct: purchased Reaction Biology Corp
T3 sequence (P53779 whole entry): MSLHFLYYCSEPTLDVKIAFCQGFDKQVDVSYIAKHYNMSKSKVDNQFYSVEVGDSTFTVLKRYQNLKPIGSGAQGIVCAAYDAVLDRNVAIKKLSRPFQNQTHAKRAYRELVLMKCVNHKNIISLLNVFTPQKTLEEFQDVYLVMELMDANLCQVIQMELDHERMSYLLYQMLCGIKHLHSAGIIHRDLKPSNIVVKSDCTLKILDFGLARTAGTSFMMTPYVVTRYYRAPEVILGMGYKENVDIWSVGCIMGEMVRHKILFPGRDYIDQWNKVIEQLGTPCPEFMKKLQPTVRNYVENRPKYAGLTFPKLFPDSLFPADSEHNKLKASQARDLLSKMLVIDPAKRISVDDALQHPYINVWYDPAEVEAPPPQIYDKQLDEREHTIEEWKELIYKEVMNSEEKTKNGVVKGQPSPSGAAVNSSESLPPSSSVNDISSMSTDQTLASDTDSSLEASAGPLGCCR
Description: HotSpot Kinase Assay (Reaction Biology Corp.), anti-JNK3 activity. Type of test: biochemical. As to conditions: HotSpot radiometric assay, 33P-ATP. As to the method: as §1, §2

The subject of test [1] is c-jun phosphorylation in SH-SY5Y human neuroblastoma cell line. The test can be described thus: In Cell Western Assay, p-c-jun after TNFa. It is filed as cell-based. As to conditions: SH-SY5Y cells, 25 ng/ml TNFa 1 hour, read-out: Phosphoryl. in SH-SY5Y. As for the experimental part:
SH-SY5Y human neuroblastoma cell line was utilized for the assay. […] Next day, cells were starved of serum for 2 hours by media replacement with serum free DMEM:F12. Cells were then pretreated with inhibitors in DMEM:F12 for 30 min, which was followed by the addition of 25 ng/ml of TNFa for 1 hour. At the end of incubation, cells were fixed with 3% paraformaldehyde for 20 min at room temperature. Following three washes with 0.1 M phosphate buffer (pH 7.0) with shaking during washes, cells were treated with Licor blocking buffer (1:1 dilution in PBS with 0.3% Triton X-100) for 1 hour on a shaker. […] Next day, cells were washed with PBS containing 0.3% Triton X-100 for 5 min each three times with shaking. […] Following three 5 min washes, cells were incubated for nuclei staining with Alexa 680 succinidimyl ester (Thermofisher cat #, A20008) at 1/40,000 dilution for 15 min with shaking and subsequent three 5 min washes. P-c-jun and nuclei signals were detected using Odyssey LiCor Infrared scanner. The p-c-jun signal of each well was normalized to the cell number using nuclei signal.

In the next test the target is HGK (Homo sapiens, UniProt O95819). Description: Enzymatic kinase assay, HGK. It is filed as biochemical. As for the experimental part: [Worded in the source for another target; this target is reported under the same test.] as §1
Sequence of HGK (O95819 whole entry): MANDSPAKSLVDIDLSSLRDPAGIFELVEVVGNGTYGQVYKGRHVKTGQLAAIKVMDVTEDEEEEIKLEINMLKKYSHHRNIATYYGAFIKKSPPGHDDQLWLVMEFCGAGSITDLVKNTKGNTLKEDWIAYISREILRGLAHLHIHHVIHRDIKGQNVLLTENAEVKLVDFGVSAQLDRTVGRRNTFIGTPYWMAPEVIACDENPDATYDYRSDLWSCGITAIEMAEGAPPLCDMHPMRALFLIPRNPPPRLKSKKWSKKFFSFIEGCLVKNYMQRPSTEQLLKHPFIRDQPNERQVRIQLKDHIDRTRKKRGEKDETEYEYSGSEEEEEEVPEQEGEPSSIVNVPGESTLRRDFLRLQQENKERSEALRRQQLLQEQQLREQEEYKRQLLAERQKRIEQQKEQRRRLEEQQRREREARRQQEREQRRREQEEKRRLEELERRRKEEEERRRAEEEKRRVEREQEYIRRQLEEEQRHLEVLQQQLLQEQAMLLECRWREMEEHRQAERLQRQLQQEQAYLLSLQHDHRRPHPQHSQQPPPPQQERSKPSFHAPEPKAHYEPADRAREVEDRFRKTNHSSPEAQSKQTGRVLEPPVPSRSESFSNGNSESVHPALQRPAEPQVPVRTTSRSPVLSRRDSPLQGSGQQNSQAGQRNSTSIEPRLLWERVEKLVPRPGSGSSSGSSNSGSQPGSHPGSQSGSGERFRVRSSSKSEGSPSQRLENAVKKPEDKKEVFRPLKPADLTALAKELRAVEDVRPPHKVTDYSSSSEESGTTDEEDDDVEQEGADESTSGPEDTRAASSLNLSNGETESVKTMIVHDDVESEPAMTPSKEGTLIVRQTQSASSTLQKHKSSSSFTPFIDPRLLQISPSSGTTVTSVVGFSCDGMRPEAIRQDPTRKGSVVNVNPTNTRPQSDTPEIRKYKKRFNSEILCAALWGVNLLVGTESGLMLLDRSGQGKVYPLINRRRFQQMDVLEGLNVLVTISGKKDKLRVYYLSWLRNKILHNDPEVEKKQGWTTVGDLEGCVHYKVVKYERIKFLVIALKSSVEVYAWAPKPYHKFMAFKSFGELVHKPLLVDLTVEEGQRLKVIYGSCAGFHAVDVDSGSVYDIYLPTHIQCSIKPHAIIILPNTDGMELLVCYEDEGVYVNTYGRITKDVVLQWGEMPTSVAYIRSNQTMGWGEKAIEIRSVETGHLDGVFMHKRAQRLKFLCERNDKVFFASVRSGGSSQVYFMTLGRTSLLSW
(§3) Kinase activity was evaluated as follows: • (1) Substrate was dissolved in freshly prepared reaction buffer • (2) Any required cofactors were dissolved in the substrate solution • (3) Kinase was added to the substrate solution followed by gentle mixing • (4) Compounds to be tested dissolved in 100% DMSO were added to the kinase reaction mixture using an Echo550 acoustic liquid handler (Labcyte, San Jose, CA) and incubated for 20 minutes at room temperature • (5) ^33P-ATP was added to the reaction mixture to initiate the kinase reaction • (6) The reaction mixture was incubated for 2 hours at room temperature • (7) Kinase activity was detected by spotting the kinase reaction on Whatman P81 paper, exposing and developing the images using a phosphorimager, and quantifying counts to determine kinase activity

Another test addresses MINK1 (Homo sapiens, UniProt Q8N4C8). Description: Enzymatic kinase assay, MINK1. It is filed as biochemical.
The target of the next test is TNIK (Homo sapiens, UniProt Q9UKE5). Description: Enzymatic kinase assay, TNIK. It is filed as biochemical. As for the experimental part: [Worded in the source for another target; this target is reported under the same test.] as §1, §3
In another test the target is DDR1 (Homo sapiens, UniProt Q08345). The test can be described thus: Enzymatic kinase assay, DDR1. Type of test: biochemical. As for the experimental part:
[Worded in the source for another target; this target is reported under the same test.] as §1, §3

This passage reports IC50 results from patent publication US12448375B2, “Kinase inhibitors for the treatment of neurodegenerative diseases” (Ohio State Innovation Foundation, priority 2019, dated 2025).

Structures are written as SMILES. Where two headings read alike, the source gives them in different places.

T1 sequence (Q16539 whole entry): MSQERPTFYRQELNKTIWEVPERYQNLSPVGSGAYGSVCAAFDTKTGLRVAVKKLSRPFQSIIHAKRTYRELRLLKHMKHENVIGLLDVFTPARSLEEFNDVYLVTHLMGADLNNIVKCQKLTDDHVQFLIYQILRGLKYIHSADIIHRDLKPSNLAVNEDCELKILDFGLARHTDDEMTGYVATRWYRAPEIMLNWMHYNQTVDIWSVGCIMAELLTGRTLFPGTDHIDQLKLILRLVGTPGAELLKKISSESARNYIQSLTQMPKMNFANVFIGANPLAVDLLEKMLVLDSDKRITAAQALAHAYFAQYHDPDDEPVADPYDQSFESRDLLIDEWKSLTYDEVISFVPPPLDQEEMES
Sequence of MINK1 (Q8N4C8 whole entry): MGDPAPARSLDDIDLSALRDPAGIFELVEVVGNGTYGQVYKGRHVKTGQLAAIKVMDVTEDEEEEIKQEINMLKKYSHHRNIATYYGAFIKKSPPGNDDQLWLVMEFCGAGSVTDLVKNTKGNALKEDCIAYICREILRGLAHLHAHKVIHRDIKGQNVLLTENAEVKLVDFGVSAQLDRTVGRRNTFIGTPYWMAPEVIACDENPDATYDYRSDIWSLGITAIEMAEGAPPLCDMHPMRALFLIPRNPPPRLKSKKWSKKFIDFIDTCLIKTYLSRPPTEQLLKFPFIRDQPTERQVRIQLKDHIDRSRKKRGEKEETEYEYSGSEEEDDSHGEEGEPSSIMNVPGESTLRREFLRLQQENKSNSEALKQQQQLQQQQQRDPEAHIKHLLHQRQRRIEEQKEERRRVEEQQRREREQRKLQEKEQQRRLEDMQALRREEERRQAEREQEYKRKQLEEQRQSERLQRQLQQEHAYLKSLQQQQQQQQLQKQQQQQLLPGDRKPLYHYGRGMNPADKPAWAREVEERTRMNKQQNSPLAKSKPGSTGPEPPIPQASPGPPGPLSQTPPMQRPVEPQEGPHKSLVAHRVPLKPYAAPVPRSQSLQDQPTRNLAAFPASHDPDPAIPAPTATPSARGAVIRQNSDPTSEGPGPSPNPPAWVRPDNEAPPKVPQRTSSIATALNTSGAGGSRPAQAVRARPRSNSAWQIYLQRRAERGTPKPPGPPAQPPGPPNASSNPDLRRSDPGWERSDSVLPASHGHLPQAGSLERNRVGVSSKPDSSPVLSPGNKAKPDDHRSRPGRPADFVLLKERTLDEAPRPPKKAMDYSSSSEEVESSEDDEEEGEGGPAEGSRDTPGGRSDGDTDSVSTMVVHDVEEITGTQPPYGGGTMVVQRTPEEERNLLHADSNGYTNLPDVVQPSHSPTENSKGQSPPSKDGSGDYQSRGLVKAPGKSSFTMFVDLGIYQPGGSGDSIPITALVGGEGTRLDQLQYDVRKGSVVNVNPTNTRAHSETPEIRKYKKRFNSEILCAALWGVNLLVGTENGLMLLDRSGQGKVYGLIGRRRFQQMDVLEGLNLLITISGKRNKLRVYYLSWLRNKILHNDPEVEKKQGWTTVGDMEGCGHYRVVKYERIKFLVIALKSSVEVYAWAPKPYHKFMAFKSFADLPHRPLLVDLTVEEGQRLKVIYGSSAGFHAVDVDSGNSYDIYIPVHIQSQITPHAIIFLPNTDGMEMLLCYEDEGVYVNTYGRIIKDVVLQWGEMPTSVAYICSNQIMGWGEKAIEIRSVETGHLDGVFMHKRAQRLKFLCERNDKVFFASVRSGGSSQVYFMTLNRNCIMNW
Sequence of DDR1 (Q08345 19-913): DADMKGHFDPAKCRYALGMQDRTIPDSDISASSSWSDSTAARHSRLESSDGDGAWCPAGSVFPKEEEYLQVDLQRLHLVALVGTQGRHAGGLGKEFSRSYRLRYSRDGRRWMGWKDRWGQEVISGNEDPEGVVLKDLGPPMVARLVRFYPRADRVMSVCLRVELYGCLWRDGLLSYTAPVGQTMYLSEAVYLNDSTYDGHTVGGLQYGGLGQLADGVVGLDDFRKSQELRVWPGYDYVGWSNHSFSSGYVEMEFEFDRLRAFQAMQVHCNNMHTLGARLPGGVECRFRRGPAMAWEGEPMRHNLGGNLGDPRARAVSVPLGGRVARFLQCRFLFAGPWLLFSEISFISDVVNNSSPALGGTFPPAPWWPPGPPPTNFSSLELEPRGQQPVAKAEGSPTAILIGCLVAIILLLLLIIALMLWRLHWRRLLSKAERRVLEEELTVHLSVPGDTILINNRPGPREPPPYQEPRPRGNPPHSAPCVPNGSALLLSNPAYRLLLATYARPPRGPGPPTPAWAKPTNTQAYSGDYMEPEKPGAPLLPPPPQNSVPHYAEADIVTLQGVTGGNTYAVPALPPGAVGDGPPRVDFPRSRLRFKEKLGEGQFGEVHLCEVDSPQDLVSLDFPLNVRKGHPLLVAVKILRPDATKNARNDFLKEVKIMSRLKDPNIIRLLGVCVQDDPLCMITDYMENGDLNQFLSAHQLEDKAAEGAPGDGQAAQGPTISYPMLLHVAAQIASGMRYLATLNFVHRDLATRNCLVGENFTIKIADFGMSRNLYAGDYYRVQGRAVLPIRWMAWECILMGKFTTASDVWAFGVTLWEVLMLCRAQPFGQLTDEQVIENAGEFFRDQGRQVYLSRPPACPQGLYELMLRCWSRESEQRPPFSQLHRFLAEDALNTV

In the case of `CNC(=O)c1cc(-n2ncc3cc(Nc4ccccc4Cl)ncc32)cs1` [Compound 6, 4-(5-((2-chlorophenyl)amino)-1H-pyrazolo[3,4-c]pyridin-1-yl)-N-methylthiophene-2-carboxamide], the IC50 against p38a is 200 to 1000 nM; on JNK1 it was above 1000 nM; at JNK3, below 200 nM; in test [1] (printed as a numeric range), 10 to 100 nM.

With `[2H]C([2H])([2H])N1CC[C@H](NC(=O)c2cc(-n3ncc4cc(Oc5ccccc5Cl)ccc43)cs2)C1` [Compound 9, (S)-4-(5-(2-chlorophenoxy)-1H-indazol-1-yl)-N-(1-(methyl-d3)pyrrolidin-3-yl)thiophene-2-carboxamide], the IC50 against p38a is above 1000 nM; on JNK1 it was above 1000 nM; against JNK3 it was below 200 nM; in test [1] it was above 1000 nM.

For the compound `CNC(=O)c1cc(-n2ncc3cc(Nc4cccc(C)c4Cl)ncc32)cs1` [Compound 25, 4-(5-((2-chloro-3-methylphenyl)amino)-1H-pyrazolo[3,4-c]pyridin-1-yl)-N-methylthiophene-2-carboxamide], the IC50 at p38a is 200 to 1000 nM; against JNK1, 200 to 1000 nM; on HGK, below 200 nM; against MINK1 it was below 200 nM; on JNK3, below 200 nM; at TNIK it was below 200 nM.

`CNC(=O)c1cc(-n2ncc3cc(Nc4ccccc4Cl)c(F)cc32)cs1` [Compound 28, 4-(5-((2-chlorophenyl)amino)-6-fluoro-1H-indazol-1-yl)-N-methylthiophene-2-carboxamide]: the IC50 on p38a was below 200 nM; at JNK1, 200 to 1000 nM; at JNK3 it was below 200 nM; in test [1], below 200 nM.

Take `[2H]C([2H])([2H])N1CC[C@H](NC(=O)c2cc(-n3ncc4cc(Nc5ccccc5Cl)ccc43)cs2)C1` [Compound 30, (S)-4-(5-((2-chlorophenyl)amino)-1H-indazol-1-yl)-N-(1-(methyl-d3)pyrrolidin-3-yl)thiophene-2-carboxamide]: the IC50 is 200 to 1000 nM on p38a, 200 to 1000 nM on JNK1, below 200 nM against JNK3 and below 200 nM in test [1].

With `[2H]C([2H])([2H])N1CC[C@H](NC(=O)c2cc(-n3ncc4cc(Nc5ccccc5Cl)c(F)cc43)cs2)C1` [Compound 36, (S)-4-(5-((2-chlorophenyl)amino)-6-fluoro-1H-indazol-1-yl)-N-(1-(methyl-d3)pyrrolidin-3-yl)thiophene-2-carboxamide], the IC50 against p38a was 200 to 1000 nM; on JNK1, 200 to 1000 nM; against JNK3, below 200 nM; in test [1] it was below 200 nM.

For the compound `CNC(=O)c1cc(-n2ncc3nc(Nc4ccccc4Cl)ccc32)cs1` [Compound 50, 4-(5-((2-chlorophenyl)amino)-1H-pyrazolo[4,3-b]pyridin-1-yl)-N-methylthiophene-2-carboxamide], the IC50 is 200 to 1000 nM against p38a, above 1000 nM against JNK1, below 200 nM against JNK3 and below 200 nM in test [1].

Consider `CNC(=O)c1cc(-n2ncc3cc(Nc4ccccc4Cl)c(C)nc32)cs1` [Compound 76, 4-(5-((2-chlorophenyl)amino)-6-methyl-1H-pyrazolo[3,4-b]pyridin-1-yl)-N-methylthiophene-2-carboxamide], for which the figures for the IC50 on p38a, on JNK1 and against JNK3 were 200 to 1000 nM, 200 to 1000 nM and below 200 nM, respectively.

Consider `COc1ccccc1Nc1cc2cnn(-c3csc(C(=O)NC4COC4)c3)c2cc1F` [Compound 77, 4-(6-fluoro-5-((2-methoxyphenyl)amino)-1H-indazol-1-yl)-N-(oxetan-3-yl)thiophene-2-carboxamide], for which the IC50 is below 200 nM on p38a, above 1000 nM against JNK1 and below 200 nM against JNK3.

Consider `COc1cc2c(cnn2-c2csc(C(=O)NC3COC3)c2)cc1Nc1ccccc1Cl` [Compound 78, 4-(5-((2-chlorophenyl)amino)-6-methoxy-1H-indazol-1-yl)-N-(oxetan-3-yl)thiophene-2-carboxamide], for which the values for the IC50 against p38a, on JNK1 and against JNK3 were above 1000 nM, above 1000 nM and below 200 nM, respectively.

Turning to `Cc1nc2c(cnn2-c2csc(C(=O)NC3(C)COC3)c2)cc1Nc1ccccc1Cl` [Compound 79, 4-(5-((2-chlorophenyl)amino)-6-methyl-1H-pyrazolo[3,4-b]pyridin-1-yl)-N-(3-methyloxetan-3-yl)thiophene-2-carboxamide], the figures for the IC50 on p38a, against JNK1 and on JNK3 were above 1000 nM, above 1000 nM and 200 to 1000 nM, respectively.

For the compound `CNC(=O)c1cc(-n2ncc3cc(Nc4ccccc4OC)c(F)cc32)cs1` [Compound 80, 4-(6-fluoro-5-((2-methoxyphenyl)amino)-1H-indazol-1-yl)-N-methylthiophene-2-carboxamide], the IC50 is 200 to 1000 nM at p38a, above 1000 nM against JNK1 and below 200 nM on JNK3.

As to `CNC(=O)c1cc(-n2ncc3cc(Nc4cccc(OC)c4Cl)c(C)nc32)cs1` [Compound 81, 4-(5-((2-chloro-3-methoxyphenyl)amino)-6-methyl-1H-pyrazolo[3,4-b]pyridin-1-yl)-N-methylthiophene-2-carboxamide], the IC50 on p38a was 200 to 1000 nM; against JNK1, 200 to 1000 nM; at JNK3, below 200 nM.

In the case of `CNC(=O)c1cc(-n2ncc3cc(Nc4c(F)cccc4OC)ccc32)cs1` [Compound 93, 4-(5-((2-fluoro-6-methoxyphenyl)amino)-1H-indazol-1-yl)-N-methylthiophene-2-carboxamide], the IC50 against p38a is 200 to 1000 nM; against DDR1 it was 200 to 1000 nM; on JNK1, above 1000 nM; against JNK3, below 200 nM.

As for `Cc1nc2c(cnn2-c2csc(C(=O)NC3COC3)c2)cc1Nc1cccc(F)c1Cl` [Compound 100, 4-(5-((2-chloro-3-fluorophenyl)amino)-6-methyl-1H-pyrazolo[3,4-b]pyridin-1-yl)-N-(oxetan-3-yl)thiophene-2-carboxamide], the IC50 was 200 to 1000 nM at p38a, 200 to 1000 nM on JNK1 and below 200 nM at JNK3.

On to `CNC(=O)c1cc(-n2ncc3cc(Nc4c(Cl)cccc4OC)cnc32)cs1` [Compound 109, 4-(5-((2-chloro-6-methoxyphenyl)amino)-1H-pyrazolo[3,4-b]pyridin-1-yl)-N-methylthiophene-2-carboxamide], for which the IC50 was 200 to 1000 nM against p38a, above 1000 nM against JNK1 and below 200 nM on JNK3.

For the compound `CNC(=O)c1cc(-n2ncc3cc(Nc4c(F)cccc4Cl)c(F)cc32)cs1` [Compound 111, 4-(5-((2-chloro-6-fluorophenyl)amino)-6-fluoro-1H-indazol-1-yl)-N-methylthiophene-2-carboxamide], the results for the IC50 on p38a, at JNK1 and against JNK3 were 200 to 1000 nM, above 1000 nM and below 200 nM, respectively.

In the case of `CNC(=O)c1cc(-n2ncc3cc(Nc4c(F)cccc4Cl)c(COC)cc32)cs1` [Compound 152], the results for the IC50 at p38a, against JNK1 and against JNK3 were 200 to 1000 nM, 200 to 1000 nM and below 200 nM, respectively.
